In one data set the target is LcrF (VirF) (Yersinia pestis, UniProt P28808). Description: biochemical. It counts as binding, Y. pseudotuberculosis.
A further data set deals with T1, ExsA (Pseudomonas aeruginosa, UniProt P26993).
T1 construct: made in house
T1 sequence (P26993 1-278): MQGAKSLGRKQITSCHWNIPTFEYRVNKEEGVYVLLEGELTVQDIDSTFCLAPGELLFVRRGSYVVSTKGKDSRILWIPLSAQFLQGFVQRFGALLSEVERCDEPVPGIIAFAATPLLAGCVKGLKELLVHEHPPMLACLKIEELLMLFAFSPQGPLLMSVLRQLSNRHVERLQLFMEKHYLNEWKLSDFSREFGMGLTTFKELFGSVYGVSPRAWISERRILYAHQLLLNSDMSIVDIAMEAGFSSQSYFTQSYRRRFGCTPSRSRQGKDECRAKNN
The data set can be described thus: In vitro activity of Mar inhibitors against ExsA: cell-free DNA binding assay. The conditions noted are these: purified ExsA from P. aeruginosa, inhibition of DNA binding in vitro.

In data set [1] the test system is Yersinia pseudotuberculosis.
The next data set has as its system P. aeruginosa. Description: Whole cell assay: cytotoxicity of P. aeruginosa toward J774 cells (CytoTox 96, LDH release). The conditions noted are these: percent cytotoxicity of treated P. aeruginosa toward J774 cells.

The source of these data is patent US20090170812A1, “Transcription factor modulating compounds and methods of use thereof” (priority 2006, published 2009).

pEC50: −log10 of the molar value. Bounds are passed on as bounds.

Chain of LcrF (VirF) (P28808 whole entry, looked up): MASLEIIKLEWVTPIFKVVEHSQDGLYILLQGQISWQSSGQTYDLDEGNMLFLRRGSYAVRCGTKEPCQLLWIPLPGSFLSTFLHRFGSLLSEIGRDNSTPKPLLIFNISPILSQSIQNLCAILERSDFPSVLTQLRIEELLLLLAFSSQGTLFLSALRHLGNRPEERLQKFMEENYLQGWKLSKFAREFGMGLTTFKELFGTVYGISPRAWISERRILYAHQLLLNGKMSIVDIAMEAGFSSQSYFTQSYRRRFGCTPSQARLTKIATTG

For `COc1cc(F)ccc1C(=O)Nc1ccc(-c2nc3ccc([N+](=O)[O-])cc3n2O)cc1` [T], the pEC50 at LcrF (VirF) and on ExsA was above 5.00 each time. Further, the “Cytotoxicity at 50 μg/mL Yersinia” value in data set [1] is given as “** (key: *: percent cytotoxicity above 75% at 50 μg/mL; **: cytotoxicities below 75% at 50 μg/mL)”. The “Cytotoxicity at 50 μg/mL Pseudomonas” value in the data set with P. aeruginosa is “* (percent cytotoxicities above 75% at 50 mg/mL)”.

As to `O=C(Nc1ccc(-c2nc3ncc([N+](=O)[O-])cc3n2O)cc1)c1ccc(F)cc1` [X], the pEC50 on LcrF (VirF) and on ExsA was 4.60 to 5.00 each time. Further, the “Cytotoxicity at 50 μg/mL Yersinia” value in data set [1] is “* (key: *: percent cytotoxicity above 75% at 50 μg/mL; **: cytotoxicities below 75% at 50 μg/mL)”. In addition, the “Cytotoxicity at 50 μg/mL Pseudomonas” value in the data set on P. aeruginosa was “* (percent cytotoxicities above 75% at 50 mg/mL)”.

On to `CC(=O)c1ccc(C(=O)Nc2ccc(-c3nc4ncc([N+](=O)[O-])cc4n3O)cc2)cc1` [Y], for which the negative logarithm of the EC50 (pEC50) is 4.60 to 5.00 at LcrF (VirF) and above 5.00 on ExsA. Also, the “Cytotoxicity at 50 μg/mL Yersinia” value in data set [1] was “* (key: *: percent cytotoxicity above 75% at 50 μg/mL; **: cytotoxicities below 75% at 50 μg/mL)”. The “Cytotoxicity at 50 μg/mL Pseudomonas” value in the data set with P. aeruginosa is on record as “* (percent cytotoxicities above 75% at 50 mg/mL)”.

The term pEC50 denotes the EC50 on a negative log10 scale, so that one unit is a factor of ten. Read a low pEC50 as a high EC50.
